Numbers after ± are expanded uncertainties.
Columns and labels:
[1] = for mass density: 298.15 K, 101.33 kPa, Liquid, Pycnometric method
[2] = Molar enthalpy of transition or fusion; conditions: Crystal; DSC

Structure (SMILES)	mass density [1]	Normal melting temperature ([1]; Crystal, DTA)	Molar enthalpy of transition or fusion [2]
CCCCO [butan-1-ol]	805.5 ± 40 kg/m3		
C[C@]12CCC(=O)C=C1CC[C@@H]1[C@@H]2CC[C@]2(C)C(=O)CC[C@@H]12 [androst-4-ene-3,17-dione]		171.39 ± 0.7 °C	6.14 ± 0.382 kcal/mol

Further lines, with some results ahead:

mass density [1]	Structure (SMILES)	Normal melting temperature ([1]; Crystal, DTA)	Molar enthalpy of transition or fusion [2]
785.9 ± 40 kg/m3	CO [methanol]		
786.4 ± 40 kg/m3	CCO [ethanol]		
782.7 ± 40 kg/m3	CC(C)O [propan-2-ol]		

From the NIST ThermoML archive (doi:10.1016/j.fluid.2013.11.008)
